Assay results as given in patent US10961279B2 (priority 2011, dated 2021).

Tested on: CTLL-2 cells
Format: cell-based

## DRGWGNGCGLFGKG [monomeric peptide]
  inhibition of proliferation of CTLL-2 cells: no effect

## GLFGAIAGFIENGWEGCGGEKEKEK [wt INF]
  effect of the dimeric peptides on proliferation of CTLL-2 cells (synthesis of new DNA): inhibits synthesis of new DNA

## PALSTGLIHLHQNIVDVQCGGEKEKEK
  inhibition of proliferation of T-cells: inhibits proliferation of T-cells in a concentration dependent manner

## DRGWGNGCGDFGKG [FLV FUS non-IS]
  effect of the dimeric peptides on proliferation of CTLL-2 cells: non-immune suppressive
